Experiments:
Type in all cases: in vitro ADME
[1] = Plasma protein binding (ultrafiltration), human
Protocol: [^14C]‐Ataluren, at 50, 500, 5000, and 50 000 ng/mL or 0.175, 1.75, 17.5, and 175 µM, in male mouse, rat, dog, monkey, and human plasma, was incubated (n = 3) at 37°C for approximately 15 minutes, transferred into Centrifree® Micropartition Units (30 000 Da molecular weight cutoff, 1 mL capacity; Amicon Inc), and centrifuged at 37°C and 2000 g for approximately 10 minutes so that the amount of the sample filtered was approximately ≤ 20% of the total volume. After centrifugation, the entire ultrafiltrate was weighed and analyzed for radioactivity using liquid scintillation counting. The percent bound = (1‐Cu/Cm)×100, where Cu is the concentration of radioactivity in the ultrafiltrate and Cm is the concentration of radioactivity in the plasma before centrifugation.

UGT1A9 = target: T1, UGT1A9 (Homo sapiens, UniProt O60656); experiment: Reaction phenotyping with recombinant human UGT enzymes: UGT1A9; conditions: rUGT1A9 0.25 mg protein/mL, 10 μmol/L, 60 minutes, n = 2
T1 construct: purchased BD Biosciences; host or cells: baculovirus-infected insect cells
T1 sequence (O60656 26-530): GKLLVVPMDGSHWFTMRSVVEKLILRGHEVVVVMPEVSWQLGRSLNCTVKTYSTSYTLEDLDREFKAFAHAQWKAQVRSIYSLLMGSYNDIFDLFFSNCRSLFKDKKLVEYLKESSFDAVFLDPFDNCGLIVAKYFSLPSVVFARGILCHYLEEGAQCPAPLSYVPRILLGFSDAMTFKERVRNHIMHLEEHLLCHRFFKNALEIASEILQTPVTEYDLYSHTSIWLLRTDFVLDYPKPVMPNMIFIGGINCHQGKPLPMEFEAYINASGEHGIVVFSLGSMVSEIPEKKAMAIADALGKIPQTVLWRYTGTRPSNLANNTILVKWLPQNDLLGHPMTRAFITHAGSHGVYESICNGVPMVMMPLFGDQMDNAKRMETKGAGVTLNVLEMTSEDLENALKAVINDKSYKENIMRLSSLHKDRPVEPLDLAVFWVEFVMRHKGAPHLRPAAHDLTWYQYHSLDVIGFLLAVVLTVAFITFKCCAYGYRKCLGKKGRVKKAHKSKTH
Protocol: Ataluren at 10 μmol/L, was incubated (n = 2) with recombinant human uridine diphosphate glucuronosyltransferase (rUGT) enzymes: rUGTs 1A1, 1A3, 1A4, 1A6, 1A7, 1A8, 1A9, 1A10, 2B4, 2B7, 2B15, and 2B17 at 0.25 mg protein/mL. Incubations were conducted in duplicate at 37°C. The incubation mixture (0.2 mL, final volume with 1% methanol) consisted of Tris‐HCl buffer (100 mmol/L, pH 7.7 at 37°C), MgCl2 (10 mmol/L), EDTA (1 mmol/L), saccharic acid 1,4‐lactone (0.1 mmol/L), and UDPGA (8 mmol/L). […] Samples were subjected to centrifugation (920 g for 10 minutes at 10°C) and the supernatant fractions were analyzed by LC‐MS/MS to quantify the formation of ataluren‐O‐1β‐acyl glucuronide and loss of ataluren. […] The ataluren acyl glucuronide formation rate after 60 minutes incubation was calculated using the amount of metabolite formed (pmol) divided by the protein amount in the incubation sample (0.05 mg) and the incubation time (60 minutes).
Quantification of ataluren loss and ataluren‐O‐1β‐acyl glucuronide formation was carried out with an LC‐MS/MS system, which consisted of two Shimadzu LC‐10ADvp pumps, a SPD10‐AVP UV/Vis detector, a Shimadzu SILHTA autosampler, a Shimadzu DGU‐14A degasser, and a Sciex API 4000 QTRAP mass spectrometer equipped with a Turbo Ionspray ionization source that operated in positive ionization mode. […]

CYP3A4/5 = experiment: CYP inhibition in pooled human liver microsomes: CYP3A4/5
Protocol: The final concentration of each probe substrate was near the experimentally determined Km value for the indicated enzyme. Ataluren or prototypical CYP inhibitors (positive controls) was incubated (n = 3) with probe substrates and HLM in 100 mmol/L phosphate buffer (pH 7.4) in a total volume of approximately 0.25 mL, and the reactions were initiated by the addition of 1 mmol/L NADPH at 37°C. The reactions were carried out using previously established conditions to ensure linearity with respect to protein concentration and incubation time (Table S1). Incubations were stopped with the addition of ice‐cold acetonitrile. Metabolite formation in incubations with test compound and control inhibitors was assessed with LC‐MS/MS methods for each of the reaction products as described in Table S2. […] After 7 minutes incubation at 37°C, the reaction was stopped by the addition of ice‐cold acetonitrile, followed by membrane plate filtration. The filtrates were used for LC‐MS/MS analysis. Enzyme activity remaining at each nonzero ataluren concentration after incubation was normalized against control sample (zero ataluren concentration, enzyme activity = 100%), and the % remaining enzyme activity values were used for IC50 calculation. IC50 values were determined by nonlinear regression with GraphPad Prism 5 using the following four‐parameter sigmoidal‐logistic IC50 equation: Fit=background+range-background/[1+I/IC50^slope]
Where, I is the inhibitor concentration, and background was set to 0 and range to 100, as percent of control values are utilized. K i was determined by nonlinear regression with GraphPad Prism 5 using best fit model.

O=C(O)c1cccc(-c2noc(-c3ccccc3F)n2)c1 [ataluren, Ataluren]
free fraction in human plasma ([1]; as measured): 0.4%
fraction unbound at 15 min ([1]; male, 50 to 50 000 ng/mL, mean ± SD, n = 3, read-out: percentage protein binding (converted)): 0.004
ataluren loss (UGT1A9): 32.7%
IC50 (CYP3A4/5; pH 7.4, CYP3A4/5, HLM, estimated, concentrations up to 400 μmol/L, substrate not stated): > 400 µM
IC50 (CYP3A4/5; pH 7.4, probe midazolam (1′-hydroxylation), Midazolam 1′-hydroxylase, pooled HLM, n=3): > 400 µM
IC50 (CYP3A4/5; pH 7.4, probe testosterone (6β-hydroxylation), Testosterone 6β-hydroxylase, pooled HLM, n=3): > 400 µM

From paper PMC7083565, “In vitro metabolism, reaction phenotyping, enzyme kinetics, CYP inhibition and induction potential of ataluren” (Pharmacology Research & Perspectives, 2020)
